In ChEMBL document CHEMBL3885861, “Open TG-GATES”:

Species: Rattus norvegicus
Experiment: Open TG-GATES - Regimen: Single
Assay type: toxicity, organism-based, Sprague-Dawley
Design: regimen Single, gender Male, age 6 weeks
Conditions: in vivo, po, route gavage; for Bas / Eos / Fbg / Ht / Lym / MCHC / MCV / Mono / Neu / PT / Plat / RBC / Ret / WBC / APTT / Hb: tissue Blood; for KIDNEY_L / KIDNEY_R / KIDNEY_TOTAL: tissue Kidney; for LIVER: tissue Liver; for ALP / ALT / AST / BUN / CRE / Ca / Cl / DBIL / GLC / IP / LDH / Na / PL / RALB / TBIL / TC / TG / TP / gamma-GTP: tissue Plasma
[1] = 120 mg/kg, 3 h, dose level Middle
[2] = 120 mg/kg, 6 h, dose level Middle
[3] = 120 mg/kg, 9 h, dose level Middle
[4] = 120 mg/kg, 24 h, dose level Middle
[5] = 400 mg/kg, 3 h, dose level High
[6] = 400 mg/kg, 6 h, dose level High
[7] = 400 mg/kg, 9 h, dose level High
[8] = 400 mg/kg, 24 h, dose level High

Compound: CC(C)N(CCC(C(N)=O)(c1ccccc1)c1ccccn1)C(C)C (stereo not drawn) [DISOPYRAMIDE]
- Bas [1]: 0%
- Eos [1]: 0.8%
- Fbg [1]: 307.4 mg/dL
- Ht [1]: 41.8%
- Lym [1]: 77.4%
- MCHC [1]: 32.3%
- MCV [1]: 62.8 fL
- Mono [1]: 2.2%
- Neu [1]: 19%
- PT [1]: 15.5 s
- Plat [1]: 121.9 x10_4/uL
- RBC [1]: 665.8 x10_4/ul
- Ret [1]: 7.4%
- WBC [1]: 63.5 x10_2/uL
- KIDNEY_L [1]: 0.9 g
- KIDNEY_R [1]: 1 g
- KIDNEY_TOTAL [1]: 1.9 g
- LIVER [1]: 9.5 g
- ALP [1]: 1368.8 IU/L
- ALT [1]: 51.2 IU/L
- AST [1]: 89.2 IU/L
- BUN [1]: 10.6 mg/dL
- CRE [1]: 0.2 mg/dL
- Ca [1]: 10.4 mg/dL
- Cl [1]: 106 meq/L
- DBIL [1]: 0.002 mg/dL
- GLC [1]: 161 mg/dL
- IP [1]: 8.5 mg/dL
- LDH [1]: 202.4 IU/L
- Na [1]: 141.6 meq/L
- PL [1]: 124 mg/dL
- RALB [1]: 3.1 g/dL
- TBIL [1]: 0.002 mg/dL
- TC [1]: 70.6 mg/dL
- TG [1]: 47 mg/dL
- TP [1]: 5.6 g/dL
- gamma-GTP [1]: 1 IU/L
- TERMINAL_BW [2]: 209.6 g
- APTT [2]: 22.7 s
- Bas [2]: 0%
- Eos [2]: 0.8%
- Fbg [2]: 320.6 mg/dL
- Hb [2]: 12.9 g/dL
- Ht [2]: 40.3%
- Lym [2]: 72.2%
- MCHC [2]: 31.9%
- MCV [2]: 63.4 fL
- Mono [2]: 2.6%
- Neu [2]: 23.4%
- PT [2]: 15.5 s
- Plat [2]: 123.1 x10_4/uL
- RBC [2]: 635.2 x10_4/ul
- Ret [2]: 7.7%
- WBC [2]: 86 x10_2/uL
- KIDNEY_L [2]: 0.9 g
- KIDNEY_R [2]: 1 g
- KIDNEY_TOTAL [2]: 1.9 g
- LIVER [2]: 9.2 g
- ALP [2]: 1458 IU/L
- ALT [2]: 41.2 IU/L
- AST [2]: 72.6 IU/L
- BUN [2]: 11.6 mg/dL
- CRE [2]: 0.2 mg/dL
- Ca [2]: 10.7 mg/dL
- Cl [2]: 106 meq/L
- DBIL [2]: 0.002 mg/dL
- GLC [2]: 159.2 mg/dL
- IP [2]: 9.1 mg/dL
- LDH [2]: 198.6 IU/L
- Na [2]: 139.4 meq/L
- PL [2]: 142 mg/dL
- RALB [2]: 3 g/dL
- TBIL [2]: 0.002 mg/dL
- TC [2]: 80.8 mg/dL
- TG [2]: 82.2 mg/dL
- TP [2]: 5.6 g/dL
- gamma-GTP [2]: 1.4 IU/L
- TERMINAL_BW [3]: 199.9 g
- APTT [3]: 21.7 s
- Bas [3]: 0%
- Eos [3]: 0.8%
- Fbg [3]: 330 mg/dL
- Ht [3]: 41.9%
- Lym [3]: 77.2%
- MCHC [3]: 32.4%
- MCV [3]: 64.1 fL
- Mono [3]: 1.8%
- Neu [3]: 19.8%
- PT [3]: 15.7 s
- Plat [3]: 117.5 x10_4/uL
- RBC [3]: 653.4 x10_4/ul
- Ret [3]: 7.3%
- WBC [3]: 61.1 x10_2/uL
- KIDNEY_L [3]: 0.9 g
- KIDNEY_R [3]: 1 g
- KIDNEY_TOTAL [3]: 1.9 g
- LIVER [3]: 8.3 g
- ALP [3]: 1309 IU/L
- ALT [3]: 35.6 IU/L
- AST [3]: 67.6 IU/L
- BUN [3]: 13.6 mg/dL
- CRE [3]: 0.2 mg/dL
- Ca [3]: 10.7 mg/dL
- Cl [3]: 107.6 meq/L
- DBIL [3]: 0 mg/dL
- GLC [3]: 149.6 mg/dL
- IP [3]: 8.9 mg/dL
- LDH [3]: 166 IU/L
- Na [3]: 140.8 meq/L
- PL [3]: 121 mg/dL
- RALB [3]: 3.1 g/dL
- TBIL [3]: 0.006 mg/dL
- TC [3]: 63.2 mg/dL
- TG [3]: 74 mg/dL
- TP [3]: 5.6 g/dL
- gamma-GTP [3]: 1.2 IU/L
- TERMINAL_BW [4]: 220.9 g
- APTT [4]: 21 s
- Bas [4]: 0%
- Eos [4]: 1%
- Fbg [4]: 319 mg/dL
- Ht [4]: 40.2%
- Lym [4]: 80.8%
- MCHC [4]: 32.7%
- MCV [4]: 64.1 fL
- Mono [4]: 1.8%
- Neu [4]: 15.6%
- PT [4]: 15.8 s
- Plat [4]: 119.1 x10_4/uL
- RBC [4]: 627.6 x10_4/ul
- Ret [4]: 7.3%
- WBC [4]: 89.5 x10_2/uL
- KIDNEY_L [4]: 1 g
- KIDNEY_R [4]: 1 g
- KIDNEY_TOTAL [4]: 2 g
- LIVER [4]: 11.2 g
- ALP [4]: 1568 IU/L
- ALT [4]: 53.6 IU/L
- AST [4]: 76.6 IU/L
- BUN [4]: 14.6 mg/dL
- CRE [4]: 0.2 mg/dL
- Ca [4]: 10.9 mg/dL
- Cl [4]: 105.6 meq/L
- DBIL [4]: 0 mg/dL
- IP [4]: 8.9 mg/dL
- LDH [4]: 160 IU/L
- Na [4]: 143.4 meq/L
- PL [4]: 157 mg/dL
- RALB [4]: 3 g/dL
- TBIL [4]: 0 mg/dL
- TC [4]: 82.2 mg/dL
- TG [4]: 118.2 mg/dL
- TP [4]: 5.5 g/dL
- gamma-GTP [4]: 1.6 IU/L
- TERMINAL_BW [5]: 210.5 g
- APTT [5]: 22.6 s
- Bas [5]: 0%
- Eos [5]: 1%
- Fbg [5]: 327.6 mg/dL
- Ht [5]: 41.8%
- Lym [5]: 74.6%
- MCHC [5]: 32.1%
- MCV [5]: 62.7 fL
- Mono [5]: 2.2%
- Neu [5]: 22%
- PT [5]: 15.5 s
- Plat [5]: 127.1 x10_4/uL
- RBC [5]: 667.8 x10_4/ul
- Ret [5]: 8%
- WBC [5]: 55.8 x10_2/uL
- KIDNEY_L [5]: 1 g
- KIDNEY_R [5]: 1 g
- KIDNEY_TOTAL [5]: 1.9 g
- LIVER [5]: 9.8 g
- ALT [5]: 47.4 IU/L
- AST [5]: 85.2 IU/L
- BUN [5]: 12.2 mg/dL
- CRE [5]: 0.1 mg/dL
- Ca [5]: 10.2 mg/dL
- Cl [5]: 106.2 meq/L
- DBIL [5]: 0.002 mg/dL
- GLC [5]: 129.8 mg/dL
- IP [5]: 8.9 mg/dL
- LDH [5]: 264.8 IU/L
- Na [5]: 142.8 meq/L
- PL [5]: 126.6 mg/dL
- RALB [5]: 3 g/dL
- TBIL [5]: 0 mg/dL
- TC [5]: 74.2 mg/dL
- TG [5]: 47.8 mg/dL
- TP [5]: 5.6 g/dL
- gamma-GTP [5]: 1 IU/L
- TERMINAL_BW [6]: 207.1 g
- APTT [6]: 22.8 s
- Bas [6]: 0%
- Eos [6]: 0.4%
- Fbg [6]: 326 mg/dL
- Ht [6]: 42.8%
- Lym [6]: 73.2%
- MCHC [6]: 31.8%
- MCV [6]: 62.5 fL
- Mono [6]: 2.6%
- Neu [6]: 23.2%
- PT [6]: 15.4 s
- Plat [6]: 122.6 x10_4/uL
- RBC [6]: 685.8 x10_4/ul
- Ret [6]: 7.5%
- WBC [6]: 67.9 x10_2/uL
- KIDNEY_L [6]: 1 g
- KIDNEY_R [6]: 1 g
- KIDNEY_TOTAL [6]: 2 g
- LIVER [6]: 9.2 g
- ALP [6]: 1240.8 IU/L
- ALT [6]: 38.8 IU/L
- AST [6]: 74 IU/L
- BUN [6]: 12.2 mg/dL
- CRE [6]: 0.1 mg/dL
- Ca [6]: 10.4 mg/dL
- Cl [6]: 105.8 meq/L
- DBIL [6]: 0.006 mg/dL
- GLC [6]: 157.2 mg/dL
- IP [6]: 8.7 mg/dL
- LDH [6]: 237.8 IU/L
- Na [6]: 140.6 meq/L
- PL [6]: 132.2 mg/dL
- RALB [6]: 3 g/dL
- TBIL [6]: 0.006 mg/dL
- TC [6]: 75.4 mg/dL
- TG [6]: 43.2 mg/dL
- TP [6]: 5.6 g/dL
- gamma-GTP [6]: 1.6 IU/L
- TERMINAL_BW [7]: 208.7 g
- APTT [7]: 24 s
- Bas [7]: 0%
- Eos [7]: 0.4%
- Fbg [7]: 326 mg/dL
- Ht [7]: 42.6%
- Lym [7]: 71.8%
- MCHC [7]: 31.9%
- MCV [7]: 62.9 fL
- Mono [7]: 1.8%
- Neu [7]: 25.4%
- PT [7]: 15.7 s
- Plat [7]: 120.6 x10_4/uL
- RBC [7]: 677.6 x10_4/ul
- Ret [7]: 7.7%
- WBC [7]: 64.5 x10_2/uL
- KIDNEY_L [7]: 1 g
- KIDNEY_R [7]: 1 g
- KIDNEY_TOTAL [7]: 2 g
- LIVER [7]: 9 g
- ALP [7]: 1238 IU/L
- ALT [7]: 41 IU/L
- AST [7]: 79 IU/L
- BUN [7]: 14 mg/dL
- CRE [7]: 0.1 mg/dL
- Ca [7]: 10.6 mg/dL
- Cl [7]: 106 meq/L
- DBIL [7]: 0 mg/dL
- GLC [7]: 145.6 mg/dL
- IP [7]: 8.4 mg/dL
- LDH [7]: 217.4 IU/L
- Na [7]: 142 meq/L
- PL [7]: 130.4 mg/dL
- RALB [7]: 3.1 g/dL
- TBIL [7]: 0 mg/dL
- TC [7]: 70.8 mg/dL
- TG [7]: 63.4 mg/dL
- TP [7]: 5.8 g/dL
- gamma-GTP [7]: 1.4 IU/L
- TERMINAL_BW [8]: 215.7 g
- APTT [8]: 23.1 s
- Bas [8]: 0%
- Eos [8]: 0.8%
- Fbg [8]: 289.6 mg/dL
- Hb [8]: 13 g/dL
- Ht [8]: 40.3%
- Lym [8]: 83%
- MCHC [8]: 32.2%
- MCV [8]: 63.1 fL
- Mono [8]: 1.6%
- PT [8]: 16.1 s
- Plat [8]: 118.5 x10_4/uL
- RBC [8]: 639.8 x10_4/ul
- Ret [8]: 6.5%
- WBC [8]: 82.6 x10_2/uL
- KIDNEY_L [8]: 1 g
- KIDNEY_R [8]: 1 g
- KIDNEY_TOTAL [8]: 1.9 g
- LIVER [8]: 8.8 g
- ALP [8]: 1524 IU/L
- ALT [8]: 48.2 IU/L
- AST [8]: 78.6 IU/L
- BUN [8]: 16 mg/dL
- CRE [8]: 0.2 mg/dL
- Ca [8]: 10.4 mg/dL
- Cl [8]: 106 meq/L
- DBIL [8]: 0 mg/dL
- GLC [8]: 153.2 mg/dL
- IP [8]: 8.8 mg/dL
- LDH [8]: 215.8 IU/L
- PL [8]: 133.2 mg/dL
- RALB [8]: 2.8 g/dL
- TBIL [8]: 0 mg/dL
- TC [8]: 75 mg/dL
- TG [8]: 58.2 mg/dL
- TP [8]: 5.4 g/dL
- gamma-GTP [8]: 2 IU/L
